Data: PubChem BioAssay (NCI)
“And” between values parts separate entries of the source, which are not always exact repeats. Equal entries are not always repeated.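 48-hour exposure; five concentrations; linearly interpolated endpoints. Here, GI50 denotes the concentration required for 50% inhibition of growth. TGI marks complete inhibition of growth.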

Assays:
Assay in all cases: growth of human tumour cells (NCI), 48 h
[1] = system: SW-620 colon
[2] = system: SK-MEL-2 melanoma
[3] = system: MOLT-4 leukemia
[4] = system: TK-10 renal
[5] = system: T-47D breast
[6] = system: IGROV1 ovarian
[7] = system: SNB-78 CNS
[8] = system: DLD-1 colon
[9] = system: DMS 273 small cell lung
[10] = system: M19-MEL melanoma
[11] = system: HOP-18 NSCLC
[12] = system: LXFL 529 NSCLC
[13] = system: XF 498 CNS

SMILES | GI50 [1] | TGI [1] | GI50 [2] | TGI [2] | GI50 [3] | TGI [3] | GI50 [4] | TGI [4] | GI50 [5] | TGI [5] | GI50 [6] | TGI [6] | TGI [7] | TGI [8] | TGI [9] | TGI [10] | TGI [11] | TGI [12] | TGI [13]
O=C1c2ccccc2-c2c1c1ccccc1c(=O)n2CCN1CCOCC1 | 87.6 µM | > 100 µM | > 100 µM | > 100 µM | 14.7 µM | 38.6 µM | 84.8 µM | > 100 µM | > 100 µM | > 100 µM | 79.4 µM | > 100 µM | – | – | – | – | – | – | –
Cc1ccccc1NC(=O)C(=O)CC(=O)c1c(C)n([O-])c2ccccc2[n+]1=O | – | > 100 µM | – | > 100 µM | – | – | – | – | – | – | – | > 100 µM | > 100 µM | > 100 µM | > 100 µM | > 100 µM | > 100 µM | > 100 µM | –
COc1cc(C2C(Cl)C(=O)N2NC(=O)c2ccc(N)cc2)ccc1O (stereo not drawn) | – | 35.2 µM | – | > 100 µM | – | 60.3 µM | – | > 100 µM | – | – | – | > 100 µM | > 100 µM | > 100 µM | > 100 µM | > 100 µM | – | 30.8 µM | 83.6 µM
CCOC(=O)NC(=O)c1cn(CCN2CCN(c3ncnc4nc[nH]c34)CC2)c(=O)[nH]c1=O | – | > 100 µM | – | > 100 µM | – | > 100 µM | – | > 100 µM | – | – | – | > 100 µM | – | > 100 µM | – | > 100 µM | > 100 µM | > 100 µM | > 100 µM
CCOC(=O)C(=Cc1cccnc1C)C(=O)OCC | – | 17.5 µM | – | 16 µM | – | 46.9 µM | – | 25.5 µM | – | – | – | 25 µM | – | 47.4 µM | 14 µM | 22.3 µM | 21.7 µM | 20.2 µM | 25.6 µM
Cc1c2c(nn1C)CSCc1cc(n(C)n1)CSc1cc(c3ccccc3c1)OCCCc1c(C(=O)O)n(C)c3c-2c(Cl)ccc13 | 4.26 µM | 16 µM | 0.165 µM | 0.429 µM | 0.448 µM | 4.4 µM | 4.75 µM | 18.3 µM | 3.88 µM | 15.7 µM | 3.99 µM | 14.5 µM | – | – | – | – | – | – | –
C[Si](C)(C)c1ccc(-c2sc(-c3ccc([Si](C)(C)C)s3)c3c2C[Si]2(C3)Cc3c(-c4ccc([Si](C)(C)C)s4)sc(-c4ccc([Si](C)(C)C)s4)c3C2)s1 | – | > 100 µM | – | – | – | > 100 µM | – | > 100 µM | – | – | – | > 100 µM | > 100 µM | > 100 µM | > 100 µM | > 100 µM | – | > 100 µM | > 100 µM
O=C(NC[C@H](O)CO)c1ccncc1Nc1ccc(I)cc1F | 0.0144 µM and 0.0188 µM | > 100 µM | 0.00484 µM and < 0.01 µM | 0.0923 µM and 0.0599 µM | > 79.9 µM | > 100 µM | – | > 100 µM | > 10 µM and 19.3 µM | > 100 µM | – | > 100 µM | – | – | – | – | – | – | –
CCc1cccc(C)c1NC(=O)C(=O)Cc1nc2ccccc2s1 | – | > 100 µM | – | > 100 µM | – | > 100 µM | – | > 100 µM | – | – | – | 20.8 µM | > 100 µM | > 100 µM | > 100 µM | > 100 µM | > 100 µM | > 100 µM | –
CCOc1ccccc1N=Nc1c(C)[nH]n(-c2nc(-c3ccccc3)cs2)c1=O | > 100 µM | > 100 µM | 27.3 µM | > 100 µM | > 100 µM | > 100 µM | 43.4 µM | > 94.2 µM | 30.1 µM | > 100 µM | 25.8 µM | > 85.3 µM | – | – | – | – | – | – | –
